{
  "source": "patent US9663473B2",
  "about": "(Actelion Pharmaceuticals Ltd, priority 2013, dated 2017)",
  "data": [
    {"target": "T1, recombinant human ALX receptor (Homo sapiens, UniProt P25090)", "T1 construct": "expressed in transfected cells; host or cells: HEK293 (HEK293-hALXR-Gα16)", "T1 sequence (P25090 1-351)": "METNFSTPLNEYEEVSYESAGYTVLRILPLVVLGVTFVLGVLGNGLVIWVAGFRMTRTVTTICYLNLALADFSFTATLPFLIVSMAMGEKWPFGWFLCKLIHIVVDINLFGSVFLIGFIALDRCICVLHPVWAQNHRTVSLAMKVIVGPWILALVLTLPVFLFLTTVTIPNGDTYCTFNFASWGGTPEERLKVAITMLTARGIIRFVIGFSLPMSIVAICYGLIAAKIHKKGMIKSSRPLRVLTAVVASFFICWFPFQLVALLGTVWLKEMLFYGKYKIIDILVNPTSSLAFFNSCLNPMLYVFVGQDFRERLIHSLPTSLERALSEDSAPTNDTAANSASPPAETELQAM", "test": "Intracellular calcium measurements (FLIPR), ALX receptor agonistic activity", "type": "cell-based", "conditions": "HEK293-hALXR-Gα16 cells, Fluo-4 calcium signal, normalized to WKYMVm 10 nM", "outline": "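HEK293 cells co-expressing human ALX receptor and Gα16 were loaded with 1 μM Fluo-4 AM for 60 min at 37° C., then exposed to serially diluted compounds on FLIPR Tetra. Peak fluorescence above baseline (ex 488/em 540 nm) was normalized to 10 nM WKYMVm as high control.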", "units": {"EC50": "µM"}, "values": [
      {"smiles": "COc1ccc(C[C@@H](NC(=O)NCc2cccc(Cl)c2Cl)c2nc3ccccc3[nH]2)cc1", "note": "[Example 307, (R)-1-(1-(1H-Benzo[d]imidazol-2-yl)-2-(4-methoxyphenyl)ethyl)-3-(2,3-dichlorobenzyl)urea]", "EC50": 0.05},
      {"smiles": "COc1ccc(C2(C(NC(=O)N[C@H]3CC[C@H](O)CC3)c3nc4ccccc4[nH]3)CC2)cc1", "note": "(relative stereo) [Example 2, 1-((1H-Benzo[d]imidazol-2-yl)(1-(4-methoxyphenyl)cyclopropyl)methyl)-3-(trans-4-hydroxycyclohexyl)urea]", "EC50": 0.081},
      {"smiles": "COc1ccc(CC(NC(=O)N[C@H]2CC[C@H](O)CC2)c2nc3ccccc3[nH]2)cc1F", "note": "(relative stereo) [Example 167, 1-(1-(1H-Benzo[d]imidazol-2-yl)-2-(3-fluoro-4-methoxyphenyl)ethyl)-3-(trans-4-hydroxycyclohexyl)urea]", "EC50": 0.0095},
      {"smiles": "COc1ccc(C[C@@H](NC(=O)Nc2cc(C)n(C)n2)c2nc3ccccc3[nH]2)cc1", "note": "[Example 7, (R)-1-(1-(1H-Benzo[d]imidazol-2-yl)-2-(4-methoxyphenyl)ethyl)-3-(1,5-dimethyl-1H-pyrazol-3-yl)urea]", "EC50": 0.315},
      {"smiles": "COc1ccc(C[C@@H](NC(=O)NCCc2ccc3c(c2)OCO3)c2nc3ccccc3[nH]2)cc1", "note": "[Example 299, (R)-1-(1-(1H-Benzo[d]imidazol-2-yl)-2-(4-methoxyphenyl)ethyl)-3-(2-(benzo[d][1,3]dioxol-5-yl)ethyl)urea]", "EC50": 0.167},
      {"smiles": "COc1ccc(CC(NC(=O)Nc2ccnn2-c2ccc(OC(F)(F)F)cc2)c2nc3ccccc3[nH]2)cc1", "note": "(stereo not shown) [Example 413, 1-(1-(1H-benzo[d]imidazol-2-yl)-2-(4-methoxyphenyl)ethyl)-3-(1-(4-(trifluoromethoxy)phenyl)-1H-pyrazol-5-yl)urea]", "EC50": 0.153},
      {"smiles": "COc1ccc(C[C@@H](NC(=O)N[C@H]2CCCC[C@H]2C(N)=O)c2nc3ccccc3[nH]2)cc1", "note": "(relative stereo) [Example 18, (1R*,2S*)-2-(3-((R)-1-(1H-Benzo[d]imidazol-2-yl)-2-(4-methoxyphenyl)ethyl)ureido)cyclohexanecarboxamide]", "EC50": 0.029},
      {"smiles": "COc1ccc(C[C@@H](NC(=O)NCc2ncccc2C)c2nc3ccccc3[nH]2)cc1", "note": "[Example 287, (R)-1-(1-(1H-Benzo[d]imidazol-2-yl)-2-(4-methoxyphenyl)ethyl)-3-((3-methylpyridin-2-yl)methyl)urea]", "EC50": 0.092},
      {"smiles": "COc1ccc(C[C@@H](NC(=O)N[C@H](C)c2ccccc2)c2nc3ccccc3[nH]2)cc1", "note": "[Example 349, 1-((R)-1-(1H-Benzo[d]imidazol-2-yl)-2-(4-methoxyphenyl)ethyl)-3-((R)-1-phenylethyl)urea]", "EC50": 0.287},
      {"smiles": "COc1ccc(CC(NC(=O)N[C@H]2CC[C@H](O)CC2)c2nc3cc(F)ccc3[nH]2)c(F)c1F", "note": "(single isomer, unassigned; ent-1) [Example 375, 1-(2-(2,3-Difluoro-4-methoxyphenyl)-1-(5-fluoro-1H-benzo[d]imidazol-2-yl)ethyl)-3-(trans-4-hydroxycyclohexyl)urea (ent-1)]", "EC50": 0.0004},
      {"smiles": "O=C(N[C@H](Cc1ccc(C(F)(F)F)cc1)c1nc2ccccc2[nH]1)NC12CCC(O)(CC1)CC2", "note": "[Example 255, (R)-1-(1-(1H-Benzo[d]imidazol-2-yl)-2-(4-(trifluoromethyl)phenyl)ethyl)-3-(4-hydroxybicyclo[2.2.2]octan-1-yl)urea]", "EC50": 0.027},
      {"smiles": "COc1ccc(C[C@@H](NC(=O)NC2CCC(F)(F)CC2)c2nc3ccccc3[nH]2)cc1", "note": "[Example 14, (R)-1-(1-(1H-Benzo[d]imidazol-2-yl)-2-(4-methoxyphenyl)ethyl)-3-(4,4-difluorocyclohexyl)urea]", "EC50": 0.038},
      {"smiles": "COc1ccc(C[C@@H](NC(=O)N[C@@H]2CCCN(C(C)=O)C2)c2nc3ccccc3[nH]2)cc1", "note": "[Example 140, 1-((R)-1-(1H-Benzo[d]imidazol-2-yl)-2-(4-methoxyphenyl)ethyl)-3-((R)-1-acetylpiperidin-3-yl)urea]", "EC50": 0.062},
      {"smiles": "Cc1ccc(C[C@@H](NC(=O)N[C@H]2CC[C@H](O)CC2)c2nc3ccccc3[nH]2)cc1", "note": "[Example 191, 1-((R)-1-(1H-Benzo[d]imidazol-2-yl)-2-(p-tolyl)ethyl)-3-(trans-4-hydroxycyclohexyl)urea]", "EC50": 0.031},
      {"smiles": "COc1ccc(C[C@@H](NC(=O)N[C@@H](C)c2ccc(Cl)cc2)c2nc3ccccc3[nH]2)cc1", "note": "[Example 328, 1-((R)-1-(1H-Benzo[d]imidazol-2-yl)-2-(4-methoxyphenyl)ethyl)-3-((S)-1-(4-chlorophenyl)ethyl)urea]", "EC50": 0.152},
      {"smiles": "COc1ccc(C[C@@H](NC(=O)NCC(C)c2ccccc2)c2nc3ccccc3[nH]2)cc1", "note": "(stereo partly drawn) [Example 197, 1-((R)-1-(1H-Benzo[d]imidazol-2-yl)-2-(4-methoxyphenyl)ethyl)-3-(2-phenylpropyl)urea]", "EC50": 0.05},
      {"smiles": "COc1ccc(CC(NC(=O)NCCc2ccccn2)c2nc3ccccc3[nH]2)cc1", "note": "(stereo not shown) [Example 8, 1-(1-(1H-Benzo[d]imidazol-2-yl)-2-(4-methoxyphenyl)ethyl)-3-(2-(pyridin-2-yl)ethyl)urea]", "EC50": 0.593},
      {"smiles": "COc1ccc(C[C@@H](NC(=O)NC2CCCc3c(OC)cccc32)c2nc3ccccc3[nH]2)cc1", "note": "(stereo partly drawn) [Example 346, 1-((R)-1-(1H-Benzo[d]imidazol-2-yl)-2-(4-methoxyphenyl)ethyl)-3-(5-methoxy-1,2,3,4-tetrahydronaphthalen-1-yl)urea]", "EC50": 0.056},
      {"smiles": "O=C(N[C@H](Cc1ccc(Br)cc1)c1nc2ccc(Cl)cc2[nH]1)NC12CCC(O)(CC1)CC2", "note": "[Example 194, (R)-1-(2-(4-Bromophenyl)-1-(6-chloro-1H-benzo[d]imidazol-2-yl)ethyl)-3-(4-hydroxybicyclo[2.2.2]octan-1-yl)urea]", "EC50": 0.0019},
      {"smiles": "COc1ccc(C[C@@H](NC(=O)NCCN2CCNCC2)c2nc3ccccc3[nH]2)cc1", "note": "[Example 150, (R)-1-(1-(1H-Benzo[d]imidazol-2-yl)-2-(4-methoxyphenyl)ethyl)-3-(2-(piperazin-1-yl)ethyl)urea]", "EC50": 0.209},
      {"smiles": "COc1ccc(CC(NC(=O)N[C@H]2CC[C@H](O)CC2)c2nc3ccccc3[nH]2)c(F)c1F", "note": "(relative stereo) [Example 232, 1-(1-(1H-Benzo[d]imidazol-2-yl)-2-(2,3-difluoro-4-methoxyphenyl)ethyl)-3-(trans-4-hydroxycyclohexyl)urea]", "EC50": 0.0026},
      {"smiles": "COc1ccc(CC(NC(=O)N[C@H]2CC[C@H](O)CC2)c2nc3ccc(F)cc3[nH]2)cc1F", "note": "(single isomer, unassigned; ent-1) [Example 318, 1-(1-(6-Fluoro-1H-benzo[d]imidazol-2-yl)-2-(3-fluoro-4-methoxyphenyl)ethyl)-3-(trans-4-hydroxycyclohexyl)urea (ent-1)]", "EC50": 0.0012},
      {"smiles": "COc1ccc(C[C@@H](NC(=O)NC2CCN(CC(F)F)CC2)c2nc3ccccc3[nH]2)cc1", "note": "[Example 182, (R)-1-(1-(1H-Benzo[d]imidazol-2-yl)-2-(4-methoxyphenyl)ethyl)-3-(1-(2,2-difluoroethyl)piperidin-4-yl)urea]", "EC50": 0.04},
      {"smiles": "COc1ccc(C[C@@H](NC(=O)N[C@H]2CC[C@](C)(O)CC2)c2nc3ccccc3[nH]2)cc1", "note": "[Example 173, 1-((R)-1-(1H-Benzo[d]imidazol-2-yl)-2-(4-methoxyphenyl)ethyl)-3-(trans-4-hydroxy-4-methylcyclohexyl)urea]", "EC50": 0.0031},
      {"smiles": "COc1ccc(C[C@@H](NC(=O)N2CC3CCC2CN3)c2nc3ccccc3[nH]2)cc1", "note": "(stereo partly drawn) [Example 122, N—((R)-1-(1H-Benzo[d]imidazol-2-yl)-2-(4-methoxyphenyl)ethyl)-2,5-diazabicyclo[2.2.2]octane-2-carboxamide]", "EC50": 0.059},
      {"smiles": "COc1ccc(CC(NC(=O)NCc2cc(C(C)C)on2)c2nc3ccccc3[nH]2)cc1", "note": "(stereo not shown) [Example 377, 1-(1-(1H-Benzo[d]imidazol-2-yl)-2-(4-methoxyphenyl)ethyl)-3-((5-isopropylisoxazol-3-yl)methyl)urea]", "EC50": 1.63},
      {"smiles": "COc1ccc(C[C@@H](NC(=O)N[C@@H]2CCC[C@@H]2O)c2nc3ccccc3[nH]2)cc1", "note": "[Example 21, 1-((R)-1-(1H-Benzo[d]imidazol-2-yl)-2-(4-methoxyphenyl)ethyl)-3-((1R,2S)-2-hydroxycyclopentyl)urea]", "EC50": 0.029},
      {"smiles": "COc1ccc(C[C@@H](NC(=O)NCc2ccccc2OC(F)F)c2nc3ccccc3[nH]2)cc1", "note": "[Example 198, (R)-1-(1-(1H-Benzo[d]imidazol-2-yl)-2-(4-methoxyphenyl)ethyl)-3-(2-(difluoromethoxy)benzyl)urea]", "EC50": 0.299},
      {"smiles": "COc1ccc(C[C@H](NC(=O)NC2CC(C)(C)NC(C)(C)C2)c2nc3ccccc3[nH]2)cc1", "note": "[Example 397, (S)-1-(1-(1H-benzo[d]imidazol-2-yl)-2-(4-methoxyphenyl)ethyl)-3-(2,2,6,6-tetramethylpiperidin-4-yl)urea]", "EC50": 0.808},
      {"smiles": "COc1ccc(C[C@@H](NC(=O)NC2CN3CCC2CC3)c2nc3ccc(C#N)cc3[nH]2)cc1", "note": "(stereo partly drawn) [Example 154, 1-((R)-1-(6-Cyano-1H-benzo[d]imidazol-2-yl)-2-(4-methoxyphenyl)ethyl)-3-(quinuclidin-3-yl)urea]", "EC50": 0.0068},
      {"smiles": "COc1ccc(C[C@@H](NC(=O)NC2CCC(C)CC2)c2nc3ccccc3[nH]2)cc1", "note": "(stereo partly drawn) [Example 22, (R)-1-(1-(1H-Benzo[d]imidazol-2-yl)-2-(4-methoxyphenyl)ethyl)-3-(4-methylcyclohexyl)urea]", "EC50": 0.085}
    ]}
  ]
}
